Data as given in patent publication US11976075B2, “Inhibitors of the MYST family of lysine acetyl transferases” (Isosterix, Inc., priority 2022, dated 2024).

target: T1, Recombinant KAT6A/MOZ (488-778) protein (Homo sapiens, UniProt Q92794); assay: Kat6a AlphaLISA Inhibition Screening Assay; format: biochemical; conditions: 10′ pre-incubation; Table 2; read-out: Kat6A biochemical assay: IC50
T1 construct: Recombinant KAT6A/MOZ (488-778) protein (Active motif, Catalog #81223); purchased Active Motif 81223
How it was run: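 Recombinant KAT6A (488-778), 25 nM, was preincubated with compound (10-point dose response) for 60 or 10 min. It then reacted 120 min at room temperature with 200 nM biotin-H3(1-21) peptide and 400 nM acetyl-CoA, pH 8.0, with 330 nM TSA present. Acetylation was detected by AlphaLISA (anti-acetyl-lysine acceptor, streptavidin donor beads).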

T1 sequence (Q92794 488-778): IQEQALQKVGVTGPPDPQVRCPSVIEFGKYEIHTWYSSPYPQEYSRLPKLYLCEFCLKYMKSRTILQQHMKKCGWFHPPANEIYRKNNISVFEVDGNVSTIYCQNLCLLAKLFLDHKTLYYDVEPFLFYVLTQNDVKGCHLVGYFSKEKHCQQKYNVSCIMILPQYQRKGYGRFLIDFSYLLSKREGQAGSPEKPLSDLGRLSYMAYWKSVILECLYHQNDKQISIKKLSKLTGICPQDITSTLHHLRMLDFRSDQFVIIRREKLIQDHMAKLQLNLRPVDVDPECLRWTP

SMILES | IC50
C#CC(=O)NCc1ccn(Cc2cc(OC)c3c(NS(=O)(=O)CC4CCCCC4)noc3c2)n1 [Synthetic Example 8, N-((1-((3-((cyclohexylmethyl)sulfonamido)-4-methoxybenzo[d]isoxazol-6-yl)methyl)-1H-pyrazol-3-yl)methyl)propiolamide] | ≤ 10 µM
C=CC(=O)N1CCC(C(=O)NCc2ccc3cc(C(=O)NS(=O)(=O)c4ccccc4F)oc3c2)CC1 [Synthetic Example 14, 1-acryloyl-N-((2-(((2-fluorophenyl)sulfonyl)carbamoyl)benzofuran-6-yl)methyl)piperidine-4-carboxamide] | 20 to 50 µM
C=CC(=O)N1CCC(C(=O)NCc2ccc3cc(C(=O)NS(=O)(=O)c4ccccc4F)oc3c2)C1 (centres unmarked) [Synthetic Example 40, 1-acryloyl-N-((2-(((2-fluorophenyl)sulfonyl)carbamoyl)benzofuran-6-yl)methyl)pyrrolidine-3-carboxamide] | > 100 µM

same assay, conditions: 10′ pre-incubation; Table 3; read-out: Kat6A Biochemical assay: IC50

SMILES | IC50
COc1cc(Cn2cc(CN)cn2)cc2onc(NS(=O)(=O)CC3CCCCC3)c12 [compound 130] | ≤ 10 µM
COc1cc(Cn2cc(C#N)cn2)cc2onc(NS(=O)(=O)CC3CCCCC3)c12 [compound 126, N-(6-((4-cyano-1H-pyrazol-1-yl)methyl)-4-methoxybenzo[d]isoxazol-3-yl)-1-cyclohexylmethanesulfonamide] | ≤ 10 µM
COc1cccc(OC)c1S(=O)(=O)Nc1n[nH]c2cc(Cn3cccn3)cc(OC)c12 [compound 125, N-(6-((1H-pyrazol-1-yl)methyl)-4-methoxy-1H-indazol-3-yl)-2,6-dimethoxybenzenesulfonamide] | ≤ 10 µM

same assay, conditions: 60′ pre-incubation; Table 2; read-out: Kat6A biochemical assay: IC50

SMILES | IC50
C#CC(=O)NCc1cnn(Cc2cc(OC)c3c(NS(=O)(=O)CC4CCCCC4)noc3c2)c1 [compound 5] | ≤ 10 µM
C#CC(=O)N1C[C@H]2CN(Cc3cc(OC)c4c(NS(=O)(=O)c5ccccc5OC)noc4c3)C[C@H]2C1 [Synthetic Example 44, 2-methoxy-N-(4-methoxy-6-(((3aR,6aS)-5-propioloylhexahydropyrrolo[3,4-c]pyrrol-2(1H)-yl)methyl)benzo[d]isoxazol-3-yl)benzenesulfonamide] | ≤ 10 µM
COc1ccccc1S(=O)(=O)Nc1noc2cc(Cn3cc(CNS(=O)(=O)c4c(F)c(F)c(F)c(F)c4F)cn3)cc(OC)c12 [compound 70, 2,3,4,5,6-pentafluoro-N-((1-((4-methoxy-3-((2-methoxyphenyl)sulfonamido)benzo[d]isoxazol-6-yl)methyl)-1H-pyrazol-4-yl)methyl)benzenesulfonamide] | ≤ 10 µM
C#CC(=O)NCc1cnn(Cc2cc(OC)c3c(NS(=O)(=O)c4ccc(C(=O)O)cc4OC)noc3c2)c1 [Synthetic Example 65, 3-methoxy-4-(N-(4-methoxy-6-((4-(propiolamidomethyl)-1H-pyrazol-1-yl)methyl)benzo[d]isoxazol-3-yl)sulfamoyl)benzoic acid] | ≤ 10 µM
COc1ccccc1S(=O)(=O)Nc1noc2cc(CN3CCC(C(=O)NCC#N)C3)cc(OC)c12 (centres unmarked) [Synthetic Example 67, N-(cyanomethyl)-1-((4-methoxy-3-((2-methoxyphenyl)sulfonamido)benzo[d]isoxazol-6-yl)methyl) pyrrolidine-3-carboxamide] | > 10 µM
C=CC(=O)NC1CCN(Cc2cc(OC)c3c(NS(=O)(=O)c4ccccc4OC)noc3c2)CC1 [Synthetic Example 49, N-(1-((4-methoxy-3-((2-methoxyphenyl)sulfonamido)benzo[d]isoxazol-6-yl)methyl)piperidin-4-yl)acrylamide] | ≤ 10 µM
C=CC(=O)NCC(=O)NCc1cnn(Cc2cc(OC)c3c(NS(=O)(=O)c4ccccc4OC)noc3c2)c1 [Synthetic Example 61, N-[2-[[1-[[4-methoxy-3-[(2-methoxyphenyl)sulfonylamino]-1,2-benzoxazol-6-yl]methyl]pyrazol-4-yl]methylamino]-2-oxo-ethyl]prop-2-enamide] | ≤ 10 µM
C=CS(=O)(=O)NCc1ccn(Cc2cc(OC)c3c(NS(=O)(=O)c4ccccc4F)noc3c2)n1 [Synthetic Example 17, 2-fluoro-N-(4-methoxy-6-((3-(vinylsulfonamidomethyl)-1H-pyrazol-1-yl)methyl)benzo[d]isoxazol-3-yl)benzenesulfonamide] | ≤ 10 µM
C=CC(=O)N1Cc2cnn(Cc3cc(OC)c4c(NS(=O)(=O)CC5CCCCC5)noc4c3)c2C1 [Synthetic Example 29A, N-(6-((5-acryloyl-5,6-dihydropyrrolo[3,4-c]pyrazol-1(4H)-yl)methyl)-4-methoxybenzo[d]isoxazol-3-yl)-1-cyclohexylmethanesulfonamide] | ≤ 10 µM
C#CC(=O)NCc1ccnc(-c2cc(C)cc(C(=O)NNS(=O)(=O)c3cccc(C(=O)NC)c3)c2)c1 [Synthetic Example 55, N-methyl-3-[[[3-methyl-5-[4-[(prop-2-ynoylamino)methyl]-2-pyridyl]benzoyl]amino]sulfamoyl] benzamide] | ≤ 10 µM
C=CC(=O)N1CCN(c2cccc(-c3cc(OC)c4c(NS(=O)(=O)c5c(OC)cccc5OC)noc4c3)c2)CC1 [Synthetic Example 56, N-(6-(3-(4-acryloylpiperazin-1-yl)phenyl)-4-methoxybenzo[d]isoxazol-3-yl)-2,6-dimethoxybenzenesulfonamide] | ≤ 10 µM
COc1cc(Cn2cc3c(n2)CN(C(=O)C#CCN(C)C)C3)cc2onc(NS(=O)(=O)CC3CCCCC3)c12 [Synthetic Example 3, 1-cyclohexyl-N-(6-((5-(4-(dimethylamino)but-2-ynoyl)-5,6-dihydropyrrolo[3,4-c]pyrazol-2(4H)-yl)methyl)-4-methoxybenzo[d]isoxazol-3-yl)methanesulfonamide] | ≤ 10 µM

same assay, conditions: 60′ pre-incubation; Table 3; read-out: Kat6A Biochemical assay: IC50

SMILES | IC50
C#CC(=O)N1CC[C@H](OCc2cc(OC)c3c(NS(=O)(=O)c4cc(CC)ccc4OC)noc3c2)C1 [compound 109, (S)-5-ethyl-2-methoxy-N-(4-methoxy-6-(((1-propioloylpyrrolidin-3-yl)oxy)methyl)benzo[d]isoxazol-3-yl) benzenesulfonamide] | ≤ 10 µM
C#CC(=O)NCc1cnn(-c2cc(C)nc(C(=O)NNS(=O)(=O)c3ccccc3F)c2)c1 [compound 91, N-((1-(2-(2-((2-fluorophenyl)sulfonyl) hydrazine-1-carbonyl)-6-methylpyridin-4-yl)-1H-pyrazol-4-yl)methyl) propiolamide] | ≤ 10 µM
C#CC(=O)NCCCOCc1cc(OC)c2c(NS(=O)(=O)c3cc(CC)ccc3OC)noc2c1 [compound 89, N-(3-((3-((5-ethyl-2-methoxyphenyl)sulfonamido)-4-methoxybenzo[d]isoxazol-6-yl)methoxy)propyl) propiolamide] | ≤ 10 µM
C#CC(=O)N1CCN(c2cc(O)cc(-c3cc(OC)c4c(NS(=O)(=O)c5c(OC)cccc5OC)noc4c3)c2)CC1 [compound 115, N-(6-(3-hydroxy-5-(4-propioloylpiperazin-1-yl)phenyl)-4-methoxybenzo[d]isoxazol-3-yl)-2,6-dimethoxybenzenesulfonamide] | ≤ 10 µM
C=CS(=O)(=O)NCCOCc1cc(OC)c2c(NS(=O)(=O)c3cc(CC)ccc3OC)noc2c1 [compound 107] | ≤ 10 µM
C=CS(=O)(=O)N1CCN(c2cccc(-c3cc(OC)c4c(NS(=O)(=O)c5c(OC)cccc5OC)noc4c3)c2)CC1 [compound 72, 2,6-dimethoxy-N-(4-methoxy-6-(3-(4-(vinylsulfonyl)piperazin-1-yl)phenyl)benzo[d]isoxazol-3-yl) benzenesulfonamide] | ≤ 10 µM
COc1ccccc1S(=O)(=O)Nc1noc2cc(Cn3cc(CNS(=O)(=O)c4ccc(F)cc4)cn3)cc(OC)c12 [compound 78, N-(6-((4-(((4-fluorophenyl)sulfonamido)methyl)-1H-pyrazol-1-yl)methyl)-4-methoxybenzo[d]isoxazol-3-yl)-2-methoxybenzenesulfonamide] | ≤ 10 µM
C#CC(=O)N1CCc2nn(Cc3cc(OC)c4c(NS(=O)(=O)c5cc(CC)ccc5OC)noc4c3)cc2C1 [105b, 5-ethyl-2-methoxy-N-(4-methoxy-6-((5-propioloyl-4,5,6,7-tetrahydro-2H-pyrazolo[4,3-c]pyridin-2-yl)methyl)benzo[d]isoxazol-3-yl)benzenesulfonamide] | ≤ 10 µM
C#CC(=O)N1CCN(c2cccc(-c3cc(OC)c4c(NS(=O)(=O)NC5CCCCC5)noc4c3)c2)CC1 [compound 111] | ≤ 10 µM
COc1ccccc1S(=O)(=O)Nc1noc2cc(Cn3ncc4c3CN(S(=O)(=O)c3c(F)c(F)c(F)c(F)c3F)C4)cc(OC)c12 [compound 82] | ≤ 10 µM
C#CC(=O)N1Cc2cnn(Cc3cc(OC)c4c(NS(=O)(=O)c5cc(CC)ccc5OC)noc4c3)c2C1 [compound 99, 5-ethyl-2-methoxy-N-(4-methoxy-6-((5-propioloyl-5,6-dihydropyrrolo[3,4-c]pyrazol-1(4H)-yl)methyl)benzo[d]isoxazol-3-yl)benzenesulfonamide] | ≤ 10 µM
C#CC(=O)N1CCN(c2ccnc(-c3cc(C)cc(C(=O)NNS(=O)(=O)c4ccccc4F)c3)c2)CC1 [compound 103, 2-fluoro-N′-(3-methyl-5-(4-(4-propioloylpiperazin-1-yl)pyridin-2-yl)benzoyl) benzenesulfonohydrazide] | ≤ 10 µM
C#CC(=O)N1CCc2c(cnn2Cc2cc(OC)c3c(NS(=O)(=O)c4cc(CC)ccc4OC)noc3c2)C1 [105a, 5-ethyl-2-methoxy-N-(4-methoxy-6-((5-propioloyl-4,5,6,7-tetrahydro-1H-pyrazolo[4,3-c]pyridin-1-yl)methyl)benzo[d]isoxazol-3-yl)benzenesulfonamide] | ≤ 10 µM
C#CC(=O)N1CCCN(c2cnc(-c3cc(OC)c4c(NS(=O)(=O)c5cc(CC)ccc5OC)noc4c3)s2)CC1 [compound 104, 5-ethyl-2-methoxy-N-(4-methoxy-6-(5-(4-propioloyl-1,4-diazepan-1-yl)thiazol-2-yl)benzo[d]isoxazol-3-yl) benzenesulfonamide] | ≤ 10 µM
